In patent publication US10202580B2, “Adult oligodendrocyte-type 2 astrocyte progenitor cell production method” (Japan Science and Technology Agency, priority 2014, dated 2019):

Test system: proliferating OPC
Assay: Number of cell divisions per colony in TH- or RA-containing medium, oxygen 1.5% by volume (Example 3)
Type: cell-based, rat
Details: RA 1 ng/mL; 1.5% O2; 12 days
Protocol: In addition, unless specifically indicated otherwise, the proliferating OPC used in the following examples were isolated from the optic nerves of 7-day-old rats (P7) in accordance with the immunopanning method of Barres, et al. (Barres, et al., Cell, 1992, Vol. 70, p. 31-46), and the purity thereof (percentage of proliferating OPC relative to all cells) was 99.9% or more.
Proliferating OPC were cultured in medium to which was added thyroid hormone or medium to which was added retinoic acid in an environment having an oxygen concentration of 1.5% by volume followed by investigating the effect of retinoic acid […] on the proliferating OPC.
Six glass bottom culture dishes having a diameter of 12 mm and-coated with PDL were prepared by seeding with 300 proliferating OPC per culture disk, followed by culturing for 12 days at 37° C. in an environment having an oxygen concentration of 1.5% by volume and carbon dioxide concentration of 5% by volume. […]
Following completion of culturing, the numbers of cells that formed colonies were respectively counted and the number of cell divisions was determined for each colony. […]

For CC1=C(/C=C/C(C)=C/C=C/C(C)=C/C(=O)O)C(C)(C)CCC1 [RA, all-trans retinoic acid], the “effect on proliferating OPC in a low oxygen environment” value was “able to interrupt proliferation of proliferating OPC and induce differentiation to adult OPC”.
